# Experimental data: publication PMC6226112 (Clinical and Translational Science, 2018)
# Like-named read-outs stand apart in the source and are kept apart here.
# Experiments:
# [1] = both, human, in vivo
# clinical [2] = details: both, human, in vivo
# [3] = Trial 1 safety and tolerability; details: for Number of AEs considered related to the drug(s): 73 drug-related of 78 AEs
# [4] = human, in vivo
# clinical [5] = details: human, in vivo
# [6] = GZR alone 200 mg once daily, ref historical database, cited from earlier work
# [7] = steady state; cited from earlier work
# [8] = Trial 2 safety and tolerability
smiles,measurement,setting,value
"COC(=O)N[C@H](C(=O)N1CCC[C@H]1c1nc(-c2ccc3c(c2)O[C@@H](c2ccccc2)n2c-3cc3cc(-c4c[nH]c([C@@H]5CCCN5C(=O)[C@@H](NC(=O)OC)C(C)C)n4)ccc32)c[nH]1)C(C)C [EBR, elbasvir]","GMRs for AUC0-∞, Cmax, and C24 (range over the three parameters)",[1],1.13–1.22
same,AUC(0-inf),clinical [2],2.55 µM·h
same,Tmax,clinical [2],3.01 h
same,AUC(0-inf),"clinical [2]; po, 50 mg",2.08 µM·h
same,Tolerability of coadministration with BUP/NAL,[3],generally well tolerated
same,Number of AEs considered related to the drug(s),[3],4
"O=C1CC[C@@]2(O)[C@H]3Cc4ccc(O)c5c4[C@@]2(CCN3CC2CC2)[C@H]1O5 [NTX, naltrexone]",Number of AEs considered related to the drug(s),[3],three
"C=CCN1CC[C@]23c4c5ccc(O)c4O[C@H]2C(=O)CC[C@@]3(O)[C@H]1C5 [NAL, naloxone]","Apparent terminal T½, GM",[4],5.20 h
same,"Cmax/D, GM",[4],0.149 ng/mL/mg
same,AUC(0-inf),clinical [2],0.416 ng·h/mL
same,Cmax,clinical [2],0.139 ng/mL
same,Tmax,clinical [2],0.98 h
same,AUC(0-inf),clinical [2]; 2 mg,0.47 ng·h/mL
same,Cmax,clinical [2]; 2 mg,0.165 ng/mL
same,Tmax,clinical [5],1.24 h
"C=C[C@@H]1C[C@]1(NC(=O)[C@@H]1C[C@@H]2CN1C(=O)[C@H](C(C)(C)C)NC(=O)O[C@@H]1C[C@H]1CCCCCc1nc3ccc(OC)cc3nc1O2)C(=O)NS(=O)(=O)C1CC1 [GZR, grazoprevir]","C24, GM",[4],13.5 nM
same,"GMRs for AUC0-24, Cmax, and C24 (range over the three parameters)",[4],0.80–0.97
same,"C24, GM",[6],13.9 nM
same,Cmax,"[6]; read-out: Cmax, GM",583 nM
same,Exposure in HCV-infected people compared with healthy people,[7],~2 fold
same,AUC(0-t),clinical [5],2.13 µM·h
same,Cmax,clinical [5],473 nM
same,Tmax,clinical [5],4 h
same,Tolerability of coadministration with BUP/NAL,[8],generally well tolerated
